Where “and” joins values, the source holds several entries; their conditions need not be identical. Equal entries are not always repeated. Entries after “also recorded” stand apart in the source; their conditions may differ. Where two headings read alike, the source gives them in different places.
Columns and labels:
[1] = test system: Sarcoma 180; experiment: In vivo antitumor activity, Sarcoma 180-bearing mice; settings: i.p. once a day for seven days at the dosage of Table 2 (about one-fifth of LD50; CTX 30 mg kg^−1), tumour weight day 21, mean ± SD
Procedure: (§1) Sarcoma180 and Lewis lung cancer cell lines were provided by Shanghai Institute of Pharmaceutical Industry. Mice were inoculated with Sarcoma180 and Lewis lung cancer tumour cells. After 7 days, the tumours were removed and the cells were harvested. Mice received subcutaneous injections of viable tumour cells (2 × 10^6 cells/mouse) in the armpit. […] CTX at 30 mg kg^−1 was used as the positive control and the vehicle as the negative control. The weight of the animals was recorded every three days. All of the animals were killed on the 21st day after tumour inoculation, and the tumours were excised and weighed. The inhibition rate was calculated as follows: (C−T)/C×100 where T is the average tumor weight of the treated group and C is the average tumor weight of the negative control group.

[2] = test system: Lewis lung cancer; experiment: In vivo antitumor activity, Lewis lung cancer-bearing mice; settings: i.p. once a day for seven days at the dosage of Table 2 (about one-fifth of LD50; CTX 30 mg kg^−1), tumour weight day 21, mean ± SD
Procedure: as §1

[3] = test system: angiogenesis of CAM; experiment: Chicken chorioallantoic membrane (CAM) angiogenesis assay; format: in vivo; settings: gelatin sponge discs 0.5, 5.0 and 50 µM/disc, 48 h, blood vessels counted
Procedure: Anti-angiogenic activity of the selected compounds 5b and 5w were investigated in vivo using a CAM assay. Five-day-old fertilized eggs were obtained from a local hatchery. We injected 5 ml of albumin, and the eggs were incubated horizontally to allow the CAM to detach from the shell to produce a sham chamber. Compounds 5b and 5w were prepared in gelatin sponge discs (5 × 5 × 5 mm^3) at the concentration of 0.5, 5.0, and 50 µM/disc, respectively. CA4P was used as the positive control drug. Discs containing the vehicle only (DMSO) were used as the negative control. A small window opening was made in the shell, and the discs were directly applied onto the CAM. The square opening was covered with sterilized surgical tape and the embryos were incubated for 48 h at 38.5 °C. The CAMs were photographed under a dissecting microscope and blood vessels in each CAM were counted. The results are presented as a mean percentage of inhibition to the control ± SD, (n = 3).
The anti-angiogenetic activity of compounds 5b and 5w were semi-quantitatively analyzed using Graph Pad Prism 5.0 (shown in Figure 2(B)).

[4] = test system: six tumor cell lines (BGC-823, HepG2, MCF-7, HT-29, Eca-109, LLC); experiment: MTT cytotoxicity, panel of six tumour cell lines (summary statements); format: cell-based; settings: MTT assay, statement over all cell lines tested; read-out: IC50 against the tested six tumor cell lines
Procedure: (§2) Target compounds were assayed by the MTT method for cytotoxic activity, as described previously. The panel of cell lines included gastric carcinoma (BGC-823), liver carcinoma (HepG2), breast carcinoma (MCF-7), colon carcinoma (HT-29), esophageal carcinoma (Eca-109), and Lewis lung carcinoma (LLC). Growth inhibition rates were calculated with the following equitation: Inhibition ratio (%)= ODcompd−ODblank/ODDMSO−ODblank×100% . Half maximal inhibitory concentration (IC50) of each compound was calculated using software Graph-Pad Prism (version 6.0).
(§3) All the 24 novel synthesized N^9-heterobivalent β-carbolines (5a-x) were screened for their in vitro cytotoxic activities against six different cancer cell lines, namely BGC-823 (gastric carcinoma), HepG2 (liver carcinoma), MCF-7 (breast carcinoma), HT-29 (colon carcinoma), Eca-109 (esophageal carcinoma) and LLC (Lewis lung carcinoma). The IC50 values were the average of at least three independent experiments.

[5] = test system: Eca-109; experiment: MTT cytotoxicity, esophageal carcinoma cells; format: cell-based; settings: Homo sapiens, ECa-109, MTT assay, esophageal carcinoma Eca-109, mean ± SD of at least three determinations
Procedure: as §2, §3

[6] = test system: KM mice; experiment: Acute toxicity in mice (i.p.); format: in vivo; settings: for Acute toxicity Neurotoxic effect: KM mice, intraperitoneal; for Acute toxicity LD50: both, KM, mouse, in vivo, ip, 14 days
Procedure: Specific pathogen-free KM mice (6–8 weeks old) weighing 19–22 g were housed in a mouse room at 24 ± 2 °C and 60–70% humidity with 12 h light/dark cycles. The mice were provided rodent laboratory chow pellets and tap water for a week to adapt to the environment of the mouse room. The experimental protocol was approved by the Institutional Animal Ethical Committee, and all of the animals were provided by Laboratory Animal Center of Xinjiang Uygur Autonomous Region. Prior to each experiment, mice were fastened overnight and allowed free access to water. Various doses of the asymmetric dimeric β-carboline derivatives, ranging from 5.0 to 500 mg kg^−1 dissolved in 0.5% carboxymethyl cellulose sodium (CMC-Na) salt solution, were given intraperitoneally to different groups of healthy KM mice, and each group contained 10 mice (5 males and 5 females). After the administration of the compounds, the mice were observed continuously for the first 2 h for any gross behavioral changes and deaths, then intermittently for the next 24 h, and occasionally thereafter for 14 days, and for the onset of any delayed effects. All of the animals were killed on the 14th day after drug administration, and they were checked macroscopically for possible damage to the heart, liver, and kidneys. Mice that experienced immediate death following drug administration were also examined for any possible organ damage. LD50 values were calculated graphically as described.
The LD50 values of the selected N^9-heterobivalent β-carbolines in mice after intraperitoneal (i.p.) administration are shown in Table 2. […] Death occurred mostly in the high dosage group within 4–8 h after injection. All of the surviving animals returned to normal within the next day.

[7] = test system: BGC-823; experiment: MTT cytotoxicity, gastric carcinoma cells; format: cell-based; settings: Homo sapiens; MTT assay, gastric carcinoma BGC-823, mean ± SD of at least three determinations
Procedure: as §2, §3

[8] = test system: HepG2; experiment: MTT cytotoxicity, liver carcinoma cells; format: cell-based; settings: Homo sapiens; MTT assay, liver carcinoma HepG2, mean ± SD of at least three determinations
Procedure: as §2, §3

[9] = test system: MCF-7; experiment: MTT cytotoxicity, breast carcinoma cells; format: cell-based; settings: Homo sapiens, MCF7; MTT assay, breast carcinoma MCF-7, mean ± SD of at least three determinations
Procedure: as §2, §3

[10] = test system: LLC; experiment: MTT cytotoxicity, Lewis lung carcinoma cells; format: cell-based; settings: Lewis lung carcinoma, MTT assay, mean ± SD of at least three determinations
Procedure: as §2, §3

[11] = test system: HT-29; experiment: MTT cytotoxicity, colon carcinoma cells; format: cell-based; settings: Homo sapiens; MTT assay, colon carcinoma HT-29, mean ± SD of at least three determinations
Procedure: as §2, §3

[12] = test system: Lewis lung cancer; design: method as in PMID 12620075; settings: mice, dosage 40 mg kg^−1; cited from earlier work
[13] = test system: KM mice; settings: mouse, in vivo; cited from earlier work
[14] = test system: Sarcoma 180; design: method as in PMID 12620075; settings: mice, dosage 40 mg kg^−1; cited from earlier work

Row | Structure (SMILES) | Tumor inhibition rate (%) Sarcoma 180 [1] | Tumor inhibition rate (%) Lewis lung cancer [2] [%] | Anti-angiogenic effect in CAM assay (in words) [3] | IC50 [4] [µM] | IC50 [5] [µM] | Acute toxicity Neurotoxic effect [6] | Acute toxicity LD50 [6] [mg/kg] | IC50 [7] [µM] | IC50 [8] [µM] | IC50 [9] [µM] | IC50 [10] [µM] | IC50 [11] [µM] | melting point [°C] | Tumor inhibition rate (%) Lewis lung cancer [12] [%] | Acute toxicity LD50 [13] [mg/kg] | Tumor inhibition rate (%) Sarcoma 180 [14] [%]
1 | O=P1(N(CCCl)CCCl)NCCCO1 (centres unmarked) [CTX, Cyclophosphamide, reference compound] | 82.5 ± 3.4% | 80.7 ± 2.1 | – | – | – | – | – | – | – | – | – | – | – | – | – | –
2 | Cc1nccc2c3ccccc3n(CCCCn3c4ccccc4c4ccnc(-c5cccnc5)c43)c12 [Compound 5b, 1–(3-pyridyl)-9–(4-(1-methyl-β-carboline-9-yl)butyl)-β-carboline] | – | – | could inhibit the angiogenesis of CAM; also recorded: inhibited angiogenesis | < 20 | 10.5 ± 1.3 | –^b | 150 | 12.1 ± 2.3 | 15.9 ± 1.4 | 8.4 ± 1.7 | 12.4 ± 2.1 | 12.6 ± 1.2 | – | – | – | –
3 | Cc1nccc2c3ccccc3n(CCCCCn3c4ccccc4c4ccnc(-c5cccnc5)c43)c12 [Compound 5c, 1–(3-pyridyl)-9–(5-(1-methyl-β-carboline-9-yl)pentyl)-β-carboline] | 33.6% and 33.6 ± 9.2% | – | – | – | 25.3 ± 3.2 | – | 175 | 22.6 ± 1.9 | 10.5 ± 2.1 | 15.3 ± 2.6 | 5.7 ± 1.2 | 13.3 ± 2.4 | – | – | – | –
4 | Cc1nccc2c3ccccc3n(CCCCn3c4ccccc4c4ccnc(-c5ccccc5Cl)c43)c12 [Compound 5i, 1–(2-chlorophenyl)-9–(4-(1-methyl-β-carboline-9-yl)butyl)-β-carboline] | – | – | – | 18.8 to 97.6 | 23.4 ± 4.1 | – | – | 37.9 ± 4.2 | 23.9 ± 3.7 | 95.5 ± 14.8 | 44.7 ± 3.6 | 28.3 ± 1.6 | 232 to 232.8 | – | – | –
5 | COc1ccc2c3ccnc(C)c3n(CCCCCn3c4ccccc4c4ccnc(C)c43)c2c1 [Compound 5t, 7-methoxy-1-methyl-9–(5-(1-methyl-β-carboline-9-yl)pentyl)-β-carboline] | 37.2% and 37.2 ± 4.4% | – | – | – | 51.9 ± 7.4 | + | 35 | 42.7 ± 2.9 | 31.6 ± 2.2 | 17.6 ± 3.4 | 3.1 ± 0.4 | 4.5 ± 0.6 | – | – | – | –
6 | COc1ccc2c3ccnc(C)c3n(CCCCn3c4ccccc4c4ccnc(-c5cccs5)c43)c2c1 [Compound 5w, 7-methoxy-1-methyl-9–(4-(1–(2-thienyl)-β-carboline-9-yl)butyl)-β-carboline] | – | – | inhibited angiogenesis | < 20 | 15.4 ± 1.9 | + | 50 | 16.5 ± 1.9 | 15.4 ± 2.7 | 14.1 ± 1.4 | 13.1 ± 2.4 | 13.1 ± 3.5 | – | – | – | –
7 | Cc1nccc2c3ccccc3n(CCCCn3c4ccccc4c4ccnc(C)c43)c12 [Compound B-9-3, 1-Methyl-9-[4–(1-methyl-β-carboline-9-yl)butyl]-β-carboline, reference compound] | – | – | – | – | 14.5 ± 2.2 | – | – | 22.3 ± 2.9 | > 100 | 13.2 ± 1.5 | 6.1 ± 0.9 | 40.6 ± 5.8 | – | 40.4 | 200 | 56.2

— article PMC6327987, “Synthesis and biological evaluation of novel N^9-heterobivalent β-carbolines as angiogenesis inhibitors” (Journal of Enzyme Inhibition and Medicinal Chemistry, 2019)
